Patent US20230293458A1, “MULTIBIOTIC AGENTS AND METHODS OF USING THE SAME” (Flagship Pioneering Innovations V, Inc., priority 2017, published 2023)

Legend:
[1] = Stability of multibiotic agents in Simulated Gastric Fluid (SGF); type: in vitro ADME; details: simulated gastric fluid pH 1.6 with pepsin, 37° C., 1 μM
Experimental: Assay 3. Stability of multibiotic agents in Simulated Gastric Fluid (SGF). This assay can be used to assess the stability of a multibiotic agent in a stomach.
Medium was prepared by dissolving 2 g of sodium chloride in 0.6 L in ultrapure water (MilliQ®, Millipore Sigma, Darmstadt, Germany). The pH was adjusted to 1.6 with 1 N hydrochloric acid, and the volume was then adjusted to 1 L with purified water.
60 mg FaSSIF powder (Biorelevant™, London, UK) were dissolved in 500 mL buffer (above). Pepsin was added (0.1 mg/mL) (Millipore Sigma, Darmstadt, Germany), and the solution was stirred. The resulting SGF media were used fresh for each experiment.
Test compounds were dissolved in DMSO stock to 1 mM. An aliquot of the DMSO stock solution was removed and diluted in the SGF Media in 15 mL falcon tubes to generate a total compound concentration of 1 μM. A 1 mL aliquot was immediately removed and diluted once with 1 volume of acetonitrile for T0 timepoint. The mixture was sealed and mixed at 37° C. in an incubator. Aliquots (1 mL) were removed at regular intervals and immediately quenched by the addition of 1 volume of acetonitrile. The resulting samples were analyzed by LC/MS to determine degradation rates in SGF.

[2] = Stability of multibiotic agents in Simulated Intestinal Fluid (SIF); type: in vitro ADME; details: simulated intestinal fluid pH 6.7 with pancreatin, 37° C., 1 μM
Experimental: Assay 2. Stability of multibiotic agents in Simulated Intestinal Fluid (SIF). This assay can be used to assess the stability of a multibiotic agent in a small intestine. Phosphate buffer was prepared by dissolving 0.42 g of sodium hydroxide pellets and 3.95 g of monobasic sodium phosphate monohydrate and 6.19 g of sodium chloride in ultrapure water (MilliQ®, Millipore Sigma, Darmstadt, Germany). The pH was adjusted to 6.7 using aq. HCl and aq. NaOH, as necessary, and the solution was diluted with ultrapure water to produce 1 L of the pH 6.7 buffer. 112 mg FaSSIF powder (Biorelevant™, London, UK) was dissolved in 50 mL of the pH 6.7 buffer. 2 to 3 mL of the resulting solution were then added to 500 mg pancreatin (Millipore Sigma, Darmstadt, Germany). The resulting mixture was agitated by finger tapping the vessel containing the mixture until milky suspension formed. At this time, the remainder of the 50 mL FaSSiF/pH 6.7 buffer solution was added. The resulting suspension was flipped upside down 10 times to produce SIF, which was used fresh. Test compounds are dissolved in DMSO stock to 1 mM. An aliquot of the DMSO stock solution is removed and diluted in the SIF media in 15 mL falcon tubes to produce a mixture with a tested compound concentration of 1 μM. A 1 mL aliquot is immediately removed and diluted once with 1 volume of acetonitrile for T0 timepoint. The mixture is sealed and agitated at 37° C. in an incubator. Aliquots (1 mL) are removed at regular intervals and immediately quenched by the addition of 1 volume of acetonitrile. The resulting samples are analyzed by LC/MS to determine degradation rates.

For `CC(=O)OCC[C@@H](C)OC(=O)Oc1ccc(/C=C/c2cc(OC(=O)O[C@H](C)CCOC(C)=O)cc(OC(=O)O[C@H](C)CCOC(C)=O)c2)cc1` [Example 178, [(3R)-3-[4-[(E)-2-[3,5-bis[[(1R)-3-acetoxy-1-methyl-propoxy]carbonyloxy]phenyl]vinyl]phenoxy]carbonyloxybutyl] acetate], the “Assay 2 (SGF) (% Remaining @ 4 hours)” value [1] was “C (>75% of the tested compound remaining)” and the “Assay 3 (SIF) (% @ Remaining 4 hours)” value [2] was “A (<25% of the tested compound remaining)”.
For `CCCC(=O)N(C)CCCN(C)C(=O)CCC` [Example 131, N-[3-[butanoyl(methyl)amino]propyl]-N-methyl-butanamide], the “Assay 2 (SGF) (% Remaining @ 4 hours)” value [1] was “C (>75% of the tested compound remaining)” and the “Assay 3 (SIF) (% @ Remaining 4 hours)” value [2] was “C (>75% of the tested compound remaining)”.
In the case of `CC(C)(COC(=O)/C=C/c1c[nH]c2ccccc12)[C@@H](OC(=O)/C=C/c1c[nH]c2ccccc12)C(=O)NCCC(N)=O` [Example 124, [(3R)-4-[(3-amino-3-oxo-propyl)amino]-3-[(E)-3-(1H-indol-3-yl)prop-2-enoyl]oxy-2,2-dimethyl-4-oxo-butyl] (E)-3-(1H-indol-3-yl)prop-2-enoate], the “Assay 2 (SGF) (% Remaining @ 4 hours)” value [1] is reported as “C (>75% of the tested compound remaining)” and the “Assay 3 (SIF) (% @ Remaining 4 hours)” value [2] is reported as “C (>75% of the tested compound remaining)”.
For `CCCC(=O)O[C@H](C)CC(=O)OCCCNC(=O)[C@H](OC(=O)C[C@@H](C)OC(=O)CCC)C(C)(C)COC(=O)C[C@@H](C)OC(=O)CCC` [Example 91, 3-[[(2R)-2,4-bis[[(3R)-3-butanoyloxybutanoyl]oxy]-3,3-dimethyl-butanoyl]amino]propyl (3R)-3-butanoyloxybutanoate], the “Assay 2 (SGF) (% Remaining @ 4 hours)” value [1] was “C (>75% of the tested compound remaining)” and the “Assay 3 (SIF) (% @ Remaining 4 hours)” value [2] was “A (<25% of the tested compound remaining)”.
In the case of `O=C(Cc1c[nH]c2ccccc12)OC[C@@H](O)[C@H](COC(=O)Cc1c[nH]c2ccccc12)OC(=O)Cc1c[nH]c2ccccc12` [Example 104, [(2R,3S)-2-hydroxy-3,4-bis[[2-(1H-indol-3-yl)acetyl]oxy]butyl] 2-(1H-indol-3-yl)acetate], the “Assay 2 (SGF) (% Remaining @ 4 hours)” value [1] is reported as “C (>75% of the tested compound remaining)” and the “Assay 3 (SIF) (% @ Remaining 4 hours)” value [2] is reported as “B (25-75% of the tested compound remaining)”.
With `CCCC(=O)OCC(OC(=O)CCC)[C@@H](OC(=O)CCC)[C@H](OC(=O)CCC)C(OC(=O)CCC)C(=O)O` (stereo in doubt) [Example 113, (2S,3S,4R,5S)-2,3,4,5,6-penta(butanoyloxy)hexanoic acid] the “Assay 2 (SGF) (% Remaining @ 4 hours)” value [1] was “C (>75% of the tested compound remaining)” and the “Assay 3 (SIF) (% @ Remaining 4 hours)” value [2] was “B (25-75% of the tested compound remaining)”.
For `CCCC(=O)O[C@H]1[C@@H](OC(=O)CCC)COC(Oc2ccccc2C(=O)O)[C@@H]1OC(=O)CCC` (stereo partly drawn) [Example 141, 2-[(3R,4S,5S)-3,4,5-tri(butanoyloxy)tetrahydropyran-2-yl]oxybenzoic acid], the “Assay 2 (SGF) (% Remaining @ 4 hours)” value [1] was “C (>75% of the tested compound remaining)” and the “Assay 3 (SIF) (% @ Remaining 4 hours)” value [2] was “A (<25% of the tested compound remaining)”.
In the case of `CC(=O)OC[C@@H](OC(C)=O)[C@H]1OC[C@H](OC(C)=O)[C@H]1OC(C)=O` [Example 86, [(2R)-2-acetoxy-2-[(2R,3R,4S)-3,4-diacetoxytetrahydrofuran-2-yl]ethyl] acetate], the “Assay 2 (SGF) (% Remaining @ 4 hours)” value [1] is reported as “C (>75% of the tested compound remaining)” and the “Assay 3 (SIF) (% @ Remaining 4 hours)” value [2] is reported as “C (>75% of the tested compound remaining)”.
With `CCCC(=O)Oc1ccc(/N=N/c2ccc(OC(=O)CCC)c(C(=O)O)c2)cc1C(=O)O` [Example 3, 2-butanoyloxy-5-[(E)-(4-butanoyloxy-3-carboxy-phenyl)azo]benzoic acid] the “Assay 2 (SGF) (% Remaining @ 4 hours)” value [1] was “A (<25% of the tested compound remaining)” and the “Assay 3 (SIF) (% @ Remaining 4 hours)” value [2] was “A (<25% of the tested compound remaining)”.
In the case of `CCCC(=O)OC[C@H]1OC(OC(=O)CCC)[C@H](OC(=O)CCC)[C@@H](OC(=O)CCC)[C@@H]1OC(=O)CCC` (stereo partly drawn) [Example 160, [(2R,3R,4S,5R)-3,4,5,6-tetra(butanoyloxy)tetrahydropyran-2-yl]methyl butanoate], the “Assay 2 (SGF) (% Remaining @ 4 hours)” value [1] is reported as “C (>75% of the tested compound remaining)” and the “Assay 3 (SIF) (% @ Remaining 4 hours)” value [2] is reported as “A (<25% of the tested compound remaining)”.
With `O=C(CCc1c[nH]c2ccccc12)O[C@H]1[C@@H](OC(=O)CCc2c[nH]c3ccccc23)COC(O)[C@@H]1OC(=O)CCc1c[nH]c2ccccc12` (stereo partly drawn) [Example 148, [(3S,4S,5R)-6-hydroxy-4,5-bis[3-(1H-indol-3-yl)propanoyloxy]tetrahydropyran-3-yl] 3-(1H-indol-3-yl)propanoate] the “Assay 2 (SGF) (% Remaining @ 4 hours)” value [1] was “C (>75% of the tested compound remaining)” and the “Assay 3 (SIF) (% @ Remaining 4 hours)” value [2] was “A (<25% of the tested compound remaining)”.
With `CCCC(=O)OC[C@@H](OC(=O)CCC)[C@@H](OC(=O)CCC)[C@H](OC(=O)CCC)[C@@H](OC(=O)CCC)C(=O)Oc1ccc(/C=C/c2cc(OC(=O)[C@H](OC(=O)CCC)[C@@H](OC(=O)CCC)[C@H](OC(=O)CCC)[C@@H](COC(=O)CCC)OC(=O)CCC)cc(OC(=O)[C@H](OC(=O)CCC)[C@@H](OC(=O)CCC)[C@H](OC(=O)CCC)[C@@H](COC(=O)CCC)OC(=O)CCC)c2)cc1` [Example 164, [4-[(E)-2-[3,5-bis[[(2R,3S,4R,5R)-2,3,4,5,6-penta(butanoyloxy)hexanoyl]oxy]phenyl]vinyl]phenyl] (2R,3S,4R,5R)-2,3,4,5,6-penta(butanoyloxy)hexanoate] the “Assay 2 (SGF) (% Remaining @ 4 hours)” value [1] was “B (25-75% of the tested compound remaining)” and the “Assay 3 (SIF) (% @ Remaining 4 hours)” value [2] was “B (25-75% of the tested compound remaining)”.
For `CCCC(=O)NCCCNC(=O)CCC` [Example 126, N-[3-(butanoylamino)propyl]butanamide], the “Assay 2 (SGF) (% Remaining @ 4 hours)” value [1] was “C (>75% of the tested compound remaining)” and the “Assay 3 (SIF) (% @ Remaining 4 hours)” value [2] was “C (>75% of the tested compound remaining)”.
With `CC(=O)OC[C@H]1O[C@@H](Oc2c(C)c(C)c3c(c2C)CC[C@@](C)(CCC[C@H](C)CCC[C@H](C)CCCC(C)C)O3)[C@H](OC(C)=O)[C@@H](OC(C)=O)[C@@H]1OC(C)=O` [Example 180, [(2R,3R,4S,5R,6S)-3,4,5-triacetoxy-6-[(2R)-2,5,7,8-tetramethyl-2-[(4R,8R)-4,8,12-trimethyltridecyl]chroman-6-yl]oxy-tetrahydropyran-2-yl]methyl acetate] the “Assay 2 (SGF) (% Remaining @ 4 hours)” value [1] was “C (>75% of the tested compound remaining)” and the “Assay 3 (SIF) (% @ Remaining 4 hours)” value [2] was “C (>75% of the tested compound remaining)”.
In the case of `CCCC(=O)Oc1ccc(C2CC(=O)c3c(OC(=O)CCC)cc(OC(=O)CCC)cc3O2)cc1` (stereo not drawn) [Example 171, [4-[5,7-di(butanoyloxy)-4-oxo-chroman-2-yl]phenyl] butanoate], the “Assay 2 (SGF) (% Remaining @ 4 hours)” value [1] is reported as “B (25-75% of the tested compound remaining)” and the “Assay 3 (SIF) (% @ Remaining 4 hours)” value [2] is reported as “A (<25% of the tested compound remaining)”.
With `C[C@@H]1OC(O)[C@H](OC(=O)Cc2c[nH]c3ccccc23)[C@H](OC(=O)Cc2c[nH]c3ccccc23)[C@H]1OC(=O)Cc1c[nH]c2ccccc12` (stereo partly drawn) [Example 155, [(2S,3S,4R,5R)-6-hydroxy-4,5-bis[[2-(1H-indol-3-yl)acetyl]oxy]-2-methyl-tetrahydropyran-3-yl] 2-(1H-indol-3-yl)acetate] the “Assay 2 (SGF) (% Remaining @ 4 hours)” value [1] was “C (>75% of the tested compound remaining)” and the “Assay 3 (SIF) (% @ Remaining 4 hours)” value [2] was “C (>75% of the tested compound remaining)”.
In the case of `CCCC(=O)OC[C@@H](OC(=O)CCC)[C@H]1OC[C@H](OC(=O)CCC)[C@H]1OC(=O)CCC` [Example 87, [(2R)-2-butanoyloxy-2-[(2R,3R,4S)-3,4-di (butanoyloxy)tetrahydrofuran-2-yl]ethyl] butanoate], the “Assay 2 (SGF) (% Remaining @ 4 hours)” value [1] is reported as “C (>75% of the tested compound remaining)” and the “Assay 3 (SIF) (% @ Remaining 4 hours)” value [2] is reported as “C (>75% of the tested compound remaining)”.
In the case of `COc1cc(/C=C/C(=O)CC(=O)/C=C/c2ccc(OC(=O)Cc3c[nH]c4ccccc34)c(OC)c2)ccc1OC(=O)Cc1c[nH]c2ccccc12` [Example 1, [4-[(1E,6E)-7-[4-[2-(1H-indol-3-yl)acetyl]oxy-3-methoxy-phenyl]-3,5-dioxo-hepta-1,6-dienyl]-2-methoxy-phenyl] 2-(1H-indol-3-yl)acetate], the “Assay 2 (SGF) (% Remaining @ 4 hours)” value [1] is reported as “C (>75% of the tested compound remaining)” and the “Assay 3 (SIF) (% @ Remaining 4 hours)” value [2] is reported as “C (>75% of the tested compound remaining)”.
